The values that follow come from PMC3187749, “Discovery of Diverse Small Molecule Chemotypes with Cell-Based PKD1 Inhibitory Activity” (PLoS ONE, 2011).

As a reminder, the IC50 is the point on the concentration scale where inhibition reaches its midpoint.

Assay type in all cases: biochemical
Assay [1] has as its target T1, PKD2 (Homo sapiens, UniProt Q9BZL6).
T1 sequence (Q9BZL6 1-878): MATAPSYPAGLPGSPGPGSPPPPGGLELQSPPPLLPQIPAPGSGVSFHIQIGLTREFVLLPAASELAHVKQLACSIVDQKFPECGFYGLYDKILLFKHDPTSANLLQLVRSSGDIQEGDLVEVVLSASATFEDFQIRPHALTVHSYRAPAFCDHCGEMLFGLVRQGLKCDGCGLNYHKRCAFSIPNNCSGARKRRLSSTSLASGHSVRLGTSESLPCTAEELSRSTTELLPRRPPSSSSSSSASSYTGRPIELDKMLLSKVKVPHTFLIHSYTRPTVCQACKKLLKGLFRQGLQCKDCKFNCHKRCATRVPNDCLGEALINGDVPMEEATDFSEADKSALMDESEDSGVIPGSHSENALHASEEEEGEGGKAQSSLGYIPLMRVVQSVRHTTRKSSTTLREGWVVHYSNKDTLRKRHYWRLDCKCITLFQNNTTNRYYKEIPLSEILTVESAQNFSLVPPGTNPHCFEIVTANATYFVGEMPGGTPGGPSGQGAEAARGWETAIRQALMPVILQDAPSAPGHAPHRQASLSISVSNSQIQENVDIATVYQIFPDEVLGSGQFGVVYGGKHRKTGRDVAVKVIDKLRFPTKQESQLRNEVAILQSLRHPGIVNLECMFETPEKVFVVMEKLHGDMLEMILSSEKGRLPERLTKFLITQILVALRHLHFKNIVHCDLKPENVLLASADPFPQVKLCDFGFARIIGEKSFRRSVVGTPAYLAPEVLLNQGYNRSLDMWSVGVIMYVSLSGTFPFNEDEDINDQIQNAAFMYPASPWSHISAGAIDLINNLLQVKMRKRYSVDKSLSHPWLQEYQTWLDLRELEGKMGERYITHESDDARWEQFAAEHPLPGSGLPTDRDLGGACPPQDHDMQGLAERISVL
Nature of the assay: Radiometric PKD2 in vitro kinase assay. The settings on record: preliminary in vitro data. The protocol: Kinase reactions were initiated with the addition of ATP (50 µM ATP, 1.0 µCi γ-^33P-ATP; Perkin Elmer, Boston, MA) and incubated for 20 min at 30°C. Twenty-five µL of the reaction was spotted onto Whatman P81 filter paper (Whatman Inc., Clifton, NJ). Filter papers were then washed three times in 0.5% phosphoric acid, air-dried, and counted using an LS6500 multi-purpose scintillation counter (Beckman Coulter, Fullerton, CA). IC50 determinations were performed using GraphPad Prism software 5.0. Radiometric PKD2 and PKD3 in vitro kinase assays were performed as previously described.

In assay [2] the target is T2, recombinant human PKD1 (Homo sapiens, UniProt Q15139).
T2 construct: His; purchased Millipore (Billerica, MA)
T2 sequence (Q15139 1-912): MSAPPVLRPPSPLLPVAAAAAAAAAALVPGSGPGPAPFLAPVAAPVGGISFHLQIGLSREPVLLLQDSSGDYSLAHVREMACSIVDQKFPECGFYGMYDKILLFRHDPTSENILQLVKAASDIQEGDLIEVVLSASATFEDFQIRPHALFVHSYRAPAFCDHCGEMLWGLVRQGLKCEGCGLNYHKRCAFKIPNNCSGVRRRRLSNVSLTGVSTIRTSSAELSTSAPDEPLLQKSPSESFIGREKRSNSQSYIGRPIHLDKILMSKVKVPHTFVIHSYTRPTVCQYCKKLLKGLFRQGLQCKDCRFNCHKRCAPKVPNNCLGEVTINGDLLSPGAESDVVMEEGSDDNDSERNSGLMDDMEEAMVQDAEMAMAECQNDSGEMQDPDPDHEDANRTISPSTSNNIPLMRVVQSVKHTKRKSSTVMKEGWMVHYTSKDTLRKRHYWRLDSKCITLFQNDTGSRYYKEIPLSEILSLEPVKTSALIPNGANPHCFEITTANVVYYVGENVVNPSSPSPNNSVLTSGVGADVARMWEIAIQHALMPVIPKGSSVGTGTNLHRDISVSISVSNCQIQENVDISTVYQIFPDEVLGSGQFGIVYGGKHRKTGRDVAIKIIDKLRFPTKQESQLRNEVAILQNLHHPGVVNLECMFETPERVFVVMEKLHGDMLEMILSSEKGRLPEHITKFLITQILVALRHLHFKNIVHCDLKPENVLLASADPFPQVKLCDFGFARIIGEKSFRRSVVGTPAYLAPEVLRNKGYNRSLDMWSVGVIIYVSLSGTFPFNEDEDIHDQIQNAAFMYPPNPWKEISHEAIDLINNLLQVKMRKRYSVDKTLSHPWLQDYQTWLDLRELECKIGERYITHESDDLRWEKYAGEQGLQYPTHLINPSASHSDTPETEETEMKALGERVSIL
The assay can be described thus: ATP competition studies (radiometric PKD1 assay, Michaelis-Menten/Lineweaver-Burk). The settings on record: PKD1, ATP 12.5–1000 µM. How it is done:
For ATP competition studies, recombinant human PKD1 (1 ng/µL) and Syntide-2 substrate peptide (200 ng/µl) in kinase buffer were incubated with a concentration range of test compound. Kinase reactions were initiated with a concentration range of cold ATP (12.5–1000 µM) supplemented with 1.0 µCi γ-^33P-ATP (Perkin Elmer) and processed as described above. Enzyme inhibition was analyzed and visualized using the Michaelis-Menten and Lineweaver-Burk functions of GraphPad Prism 5.0.

Assay [3] deals with CDK7. Nature of the assay: IMAP-based CDK7 counter screen. The settings on record: concentrations up to 50 µM. The text has this: (§1) It was also gratifying that, in general, our novel cell active PKD1 inhibitors appeared to be less promiscuous than PKD1 inhibitors having minimal to no cellular PKD1 inhibitory activity (Table 1). For example, CIDs 755673 and 1893668 display additional confirmed activity in six and seven, respectively, PubChem bioassays while CID 2011756 has confirmed activity in only one additional PubChem bioassay. […] In contrast, the remaining chemotypes registered as confirmed actives in 2–43 additional bioassays (Table 1). Additional chemical similarity searching, focusing on our four novel cell-active PKD1 inhibitory chemotypes, using MetaDrug also supports a comparative lack of promiscuity of these compounds.
(The purpose of a counterscreen is to sort out artefacts and off-target activity.)

In assay [4] the test system is AKT. The assay can be described thus: IMAP-based AKT counter screen. The following applies: concentrations up to 50 µM.
Excerpt: as §1

On to `O=C(Nc1ccc(CN2CCOCC2)cc1)c1ccc(-c2cccc(Cl)c2)o1` [CID 2011756, 5-(3-chlorophenyl)-N-[4-(morpholin-4-ylmethyl)phenyl]furan-2-carboxamide], for which the IC50 in assay [1] was 0.6 ± 0.1 µM. In assay [2], the “Mechanism of Action (with respect to ATP)” value is given as “ATP competitive”. The CDK7 kinase inhibition entry in assay [3] was “no kinase inhibition”. In assay [4], the AKT kinase inhibition result was “no kinase inhibition”.
